Experiments:
[1] = system: intestinal mucositis caused by 5-FU; assay: intestinal mucositis model caused by 5-FU (weight, diarrhea, villus histology); format: in vivo, female Wistar mouse
Description: The compound c3 was tested in in vivo for evaluating its protection regarding intestinal mucositis caused by 5-FU. The mucositis model was developed in female Wistar mouse (180-200 g) and the animals were divided into 5 groups with 4 animals in each group: Group 1: Saline+Saline Group 2: Compound c3 (150 mg/kg)+saline Group 3: Saline+5-FU (50 mg/kg) Group 4: Compound c3 (50 mg/kg)+5-FU (50 mg/kg) Group 5: Compound c3 (150 mg/kg)+5-FU (50 mg/kg) The test compound was administrated via oral, 30 minutes before administrating the chemotherapeutic 5-FU that was administrated via intraperitoneal. This treatment was followed for 5 days with once a day administrations. In the 5th treatment day, the animals were euthanized using one inhalational anesthetic (isoflurane) and the initial portion of the intestine (corresponding to jejunum and ileus) was collected for myeloperoxidase analysis (MPO) and histological analysis of the tissue, as well blood collect for quantification analysis of the uridine in the plasma. The animals were also followed-up regarding weight loss and diarrhea.

[2] = biological target: T1, Human Phosphorylase Uridine 1 (hUP1) (Homo sapiens, UniProt Q16831); assay: Ki and inhibition type from substrate saturation curves, double-reciprocal analysis; format: biochemical; conditions: for Inhibiting type for phosphate: substrate Pi; for Inhibition type for uridine: substrate uridine
T1 sequence (Q16831 whole entry): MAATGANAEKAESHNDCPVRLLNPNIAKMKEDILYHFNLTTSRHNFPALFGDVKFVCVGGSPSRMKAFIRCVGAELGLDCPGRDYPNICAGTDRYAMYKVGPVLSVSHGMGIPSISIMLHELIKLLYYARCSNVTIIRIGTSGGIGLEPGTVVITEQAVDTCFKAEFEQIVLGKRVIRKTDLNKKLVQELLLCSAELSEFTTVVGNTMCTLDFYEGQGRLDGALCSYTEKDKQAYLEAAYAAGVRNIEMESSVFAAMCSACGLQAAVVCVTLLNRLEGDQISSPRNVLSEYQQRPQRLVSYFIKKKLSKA
Description: (§1) The enzymatic activity of the hUP1 is performed through the enzymatic essay using one spectrophotometer UV/visible where the absorbance reduction of uridine in 280 nm, for 1 min and at 37° C. was monitored.
For determining Ki for the selected inhibitors, we performed saturation curves where the concentration of one of the substrates is fixed next to the Km and the concentration of another, varied until the saturation in fixed-varying concentrations of each one of the inhibitors.
(I) v=VA/[Ka(1+I/Kii)+A(1+Kis)] (II) v=VA/[A(1+I/Kis)+Ka] (III)

hUP1 = hUP1 (Homo sapiens, UniProt Q16831); assay: isothermal titration microcalorimetry (ITC), free enzyme; format: binding
hUP1, sequence (Q16831 whole entry): as above
Description: (§2) For determining the thermodynamic parameters (enthalpy variation—ΔH, entropy variation—ΔS, and free energy variation of Gibbs—ΔG) were performed compounds binding essays to the enzyme in different conditions: free enzyme, complexed enzyme with the substrate Pi, and the complexed enzyme with the product ribose-1-phosphate (R1P). For such analyses, it was used isothermal titration microcalorimetry (ITC) where the equipment monitors the difference of transferred heat, between the reference cell and the sample cell, when bindings are formed or broken during the binding process. The data analysis achieved was performed through the model One Set of Sites and the determination of ΔG and the dissociation constant (KD) were through the equations (IV) and (V) below, respectively: ΔG=ΔH−TΔS (IV) KD=1/Ka (V)

hUP1-Pi = hUP1-Pi (Homo sapiens, UniProt Q16831); assay: isothermal titration microcalorimetry (ITC), enzyme complexed with substrate Pi; format: binding
hUP1-Pi, sequence (Q16831 whole entry): as above
Description: as §2

hUP1-R1P = hUP1-R1P (Homo sapiens, UniProt Q16831); assay: isothermal titration microcalorimetry (ITC), enzyme complexed with product ribose-1-phosphate; format: binding
hUP1-R1P, sequence (Q16831 whole entry): as above
Description: as §2

[3] = biological target: T1, Human Phosphorylase Uridine 1 (hUP1); conditions: literature value, said to be confirmed by own experiments; read-out: constant inhibition for uridine described on the literature; cited from earlier work
[4] = biological target: T1, Human Phosphorylase Uridine 1 (hUP1); assay: hUP1 enzymatic assay, inhibition at 1 μM (UV absorbance of uridine at 280 nm); format: biochemical; conditions: 1 μM compound, 37° C.
Description: as §1
For determining which inhibitors would be selected for determining the inhibition constant (Ki), one cut point of 1 μM was stipulated, where only those compounds that would inhibit more than 60% of the initial activity of the enzyme would be selected for this type of analysis (Table 1). From all compounds tested, 7 molecules had its inhibition above 60% with the concentration of 1 μM (Compounds c1, c2, c3, c4, c6, c12, and c13). All essays described on this patent application were performed for these compounds and for benzil acyclo uridine (BAU), in order to perform a direct comparison of the results achieved with the better in vitro inhibitor of the hUP1 described (standard).

plasma uridine = assay: uridine concentration in animals' plasma by HPLC (mucositis model); format: in vivo, female Wistar mouse; conditions: compound orally, either 50 mg/kg or 150 mg/kg
Description: The test compound was administrated via oral, 30 minutes before administrating the chemotherapeutic 5-FU that was administrated via intraperitoneal. This treatment was followed for 5 days with once a day administrations. In the 5th treatment day, the animals were euthanized using one inhalational anesthetic (isoflurane) and the initial portion of the intestine (corresponding to jejunum and ileus) was collected for myeloperoxidase analysis (MPO) and histological analysis of the tissue, as well blood collect for quantification analysis of the uridine in the plasma. The animals were also followed-up regarding weight loss and diarrhea.
The determination of the uridine concentration in the animals' plasma as performed by HPLC, using as mobile phase acetic acid 0.1%. First, it was made a calibration curve using commercial uridine as standard (Sigma) in the concentrations of 0.625-1.25-2.5-5.0-10.0-20.0 μM in mice plasma to keep the same matrix where the samples ones are. After the calibration curve, the plasma samples were analyzed of each group and was one positive result was achieved. As was expected, there was an increase of 4.4 times in the uridine concentration in the animals' plasma that received the compound orally, either in the dose of 50 mg/kg or in the dose of 150 mg/kg (FIGS. 5A and 5B). […]

[5] = system: myeloperoxidase (MPO) in initial portion of the intestine; assay: MPO analysis in repeated mucositis model; format: in vivo; conditions: 50 mg/kg orally of 8-8 h, starting 2 days before 5-FU and 2 further days with 5-FU
Description: The last in vivo analysis was regarding the MPO. The MPO is a primary answer of inflammation, present in neutrophils, and for that it was analyzed which is the best day of euthanasia to check this primary answer. The treatment schema lasted 5 days, where the animals were divided into 2 groups with 10 animals in each (Group Saline and Group 5-FU). The 5-FU (50 mg/kg) was administrated using the intraperitoneal via, as well the Saline. The animals were put into euthanasia in 24 h, 48 h, 72 h, 96 h and 120 h after the administration (days 1-5) and the initial portion of the intestine was collected. It was verified that the best day for MPO quantification would be day 2 (48 h after 5-FU administration), such as represented in the FIG. 6, in which the statistical analysis was performed though one-way ANOVA followed by Bonferroni test. The lines represent the standard error while each column represents the mean of two animals of each group. *Significant difference regarding group Saline (*p<0.05).
The first experiment of mucositis was repeated, with 3 groups having 5 animals in each (Group Saline+Saline, Group Saline+5-FU and Group Compound c3+5-FU). […] The animals were euthanized with isoflurane and the initial portion of the intestine was analyzed. […]

[6] = c3 50 or 150 mg/kg oral 30 min before 5-FU 50 mg/kg intraperitoneal, once a day, 5 days

| SMILES | Inhibiting type for phosphate [2] | Inhibition type for uridine [2] | Kd (hUP1) [µM] | ΔG° (hUP1) [kcal/mol] | ΔH° (hUP1) [kcal/mol] | −TΔS (kcal/mol/deg) (hUP1) | Kd (hUP1-Pi) [nM] | ΔG° (hUP1-Pi) [kcal/mol] | ΔH° (hUP1-Pi) [kcal/mol] | −TΔS (kcal/mol/deg) (hUP1-Pi) | Kd (hUP1-R1P; hUP1-R1P 50 μM) [µM] | ΔG° (hUP1-R1P; hUP1-R1P 50 μM) [kcal/mol] | ΔH° (hUP1-R1P; hUP1-R1P 50 μM) [kcal/mol] | Kd (hUP1-R1P; hUP1-R1P 150 μM) [µM] | ΔG° (hUP1-R1P; hUP1-R1P 150 μM) [kcal/mol] | ΔH° (hUP1-R1P; hUP1-R1P 150 μM) [kcal/mol] | Inhibition with 1 μM (%) [4] [%] | inhibition at 1 µM [4] [%] | −TΔS (kcal/mol/deg) (hUP1-R1P; hUP1-R1P 50 μM) [kcal/mol] | −TΔS (kcal/mol/deg) (hUP1-R1P; hUP1-R1P 150 μM) [kcal/mol] | also measured |
| --- | --- | --- | --- | --- | --- | --- | --- | --- | --- | --- | --- | --- | --- | --- | --- | --- | --- | --- | --- | --- | --- |
| O=c1[nH]cc(F)c(=O)[nH]1 [Compound 5-FU, 5-fluorouracil, reference compound] |  |  |  |  |  |  |  |  |  |  |  |  |  |  |  |  |  |  |  |  | diarrhea ([1]; 5-FU 50 mg/kg intraperitoneal, once a day, all groups that received the chemotherapeutic): developed severe diarrhea; weight loss ([1]; 5-FU 50 mg/kg intraperitoneal, once a day, with or without the compound, day 1 vs day 6): had a weight loss and this was significant; intestinal villus (histological analysis) ([1]; group that received only 5-FU, 50 mg/kg intraperitoneal): villus totally damaged |
| Cc1cc(O)[nH]c(=O)c1C#N [Compound c3] | Uncompetitive | Not competitive |  |  |  |  | 12000 ± 1400 | -6.9 ± 0.8 | -19 ± 1.3 | 12 ± 1.4 | 1.4 ± 0.341 | -8.3 ± 2.0 | -31 ± 1.2 | 0.04 | -9.8 ± 1.4 | -21 ± 0.1 | 70 | > 60 | 22 ± 5.4 | 11 ± 1.5 | Kd (hUP1-R1P; hUP1-R1P 200 μM): 0.02 µM; ΔG° (hUP1-R1P; hUP1-R1P 200 μM): -11 ± 1.3 kcal/mol; ΔH° (hUP1-R1P; hUP1-R1P 200 μM): -22 ± 0.1 kcal/mol; −TΔS (kcal/mol/deg) (hUP1-R1P; hUP1-R1P 200 μM): 11 ± 1.3 kcal/mol; intestinal villus size (histological analysis) ([1]; both tested doses (50 and 150 mg/kg oral) + 5-FU 50 mg/kg intraperitoneal, 5 days): statistically equal to the group Saline and different from the group 5-FU; protection from diarrhea caused by 5-FU [1, 6]: not able to avoid these side effects; protection from weight loss caused by 5-FU [1, 6]: not able to avoid these side effects; increase in the uridine concentration in the animals' plasma (plasma uridine): 4.4 times; MPO, primary inflammation process [5]: not able to revert the primary inflammation process |

More lines, in order of falling Kd (hUP1-Pi), values ahead:

| Inhibiting type for phosphate [2] | Inhibition type for uridine [2] | Kd (hUP1) [µM] | ΔG° (hUP1) [kcal/mol] | ΔH° (hUP1) [kcal/mol] | −TΔS (kcal/mol/deg) (hUP1) | Kd (hUP1-Pi) [nM] | ΔG° (hUP1-Pi) [kcal/mol] | ΔH° (hUP1-Pi) [kcal/mol] | −TΔS (kcal/mol/deg) (hUP1-Pi) | Kd (hUP1-R1P; hUP1-R1P 50 μM) [µM] | ΔG° (hUP1-R1P; hUP1-R1P 50 μM) [kcal/mol] | ΔH° (hUP1-R1P; hUP1-R1P 50 μM) [kcal/mol] | Kd (hUP1-R1P; hUP1-R1P 150 μM) [µM] | ΔG° (hUP1-R1P; hUP1-R1P 150 μM) [kcal/mol] | ΔH° (hUP1-R1P; hUP1-R1P 150 μM) [kcal/mol] | Inhibition with 1 μM (%) [4] [%] | inhibition at 1 µM [4] [%] | −TΔS (kcal/mol/deg) (hUP1-R1P; hUP1-R1P 50 μM) [kcal/mol] | −TΔS (kcal/mol/deg) (hUP1-R1P; hUP1-R1P 150 μM) [kcal/mol] | SMILES | also measured |
| --- | --- | --- | --- | --- | --- | --- | --- | --- | --- | --- | --- | --- | --- | --- | --- | --- | --- | --- | --- | --- | --- |
| Not competitive | Competitive | 1.2 ± 0.15 | -8.4 ± 1.0 | -10 ± 0.1 | 1.5 ± 0.2 | 1400 ± 239 | -8.2 ± 1.4 | -13 ± 0.3 | 4.6 ± 0.8 | 1.2 ± 0.244 | -8.2 ± 1.7 | -12 ± 0.3 | 6.6 ± 0.898 | -7.3 ± 1.0 | -20 ± 0.7 |  |  |  |  | O=c1[nH]c(=O)n(COCCO)cc1Cc1ccccc1 [BAU, benzil acyclo uridine, reference compound] | Ki [3]: 100 nM |
| Uncompetitive | Competitive | 5.3 ± 0.674 | -7.4 ± 1.0 |  | 16 ± 2.0 | 502 ± 83 | -9.0 ± 1.5 | -14 ± 0.2 | 5.0 ± 0.8 | 7 ± 0.661 | -7.3 ± 0.7 | -18 ± 0.4 | 7 ± 2.12 | -7.3 ± 2.2 | -10 ± 1.0 | 82 |  | 10 ± 1.0 | 3.3 ± 1.0 | Cc1c(CNC(CO)CO)c(O)[nH]c(=O)c1C#N [c6] |  |
| Uncompetitive | Competitive | 20 ± 2.63 | -6.7 ± 0.9 | -22 ± 2.2 | 15 ± 2.0 | 263 ± 26 | -9.3 ± 0.9 | -19 ± 0.1 | 10 ± 1.0 | 4.6 ± 0.344 | -7.5 ± 0.5 | -22 ± 0.5 | 9.4 ± 1.04 | -7.1 ± 0.8 | -18 ± 0.8 | 78 | > 60 | 14 ± 1.0 | 11 ± 1.2 | Cc1c(CNCC(O)CO)c(O)[nH]c(=O)c1C#N (centres unmarked) [c4] |  |
